{"source": "patent US20240374563A1", "about": "“ANTICHOLINERGIC COMPOUNDS FOR USE IN TREATING NEUROMUSCULAR DISORDERS” (UNIVERSITY OF MONTRÉAL, priority 2022, published 2024)", "assay_type_in_all_cases": "in vivo, mouse", "key": {"SOD1^G37R mice [1]": {"test_system": "SOD1^G37R mice", "test": "EDL muscle fatigue protocol and 30 min recovery", "protocol": "In addition to the force generated, a muscle is also characterised by its resistance to fatigue. For instance, fast-twitch muscles composed of a majority of fast fatigable motor units like the EDL, is their great fatigability. In ALS, alteration at the type of innervation (from fast to slow twitch) and in the properties of muscles themselves alter the fatigue properties, rendering them more resistant. […] We used a fatigue stimulation protocol, followed by a 30 min recovery period (FIG. 6A). […] However, we found no difference in the rate of fatigue of muscle contractions generated by motor nerve stimulation (FIG. 6C; Dari N=8, Placebo N=8; p>0.05, Repeated two-way ANOVA). […] There was no difference in the rate of recovery following the fatigue protocol between the darifenacin-treated mice and the placebo-treated ones (FIG. 6B-C; Dari N=8, Placebo N=8; p>0.05, Repeated two-way ANOVA).\nFinally, we investigated the fatigue properties of the EDL muscle following darifenacin pre-onset treatment. As mentioned earlier, fast-twitch muscles like the EDL are very strong but are normally highly fatigable. However, in ALS, a gradual resistance to fatigue of fast-twitch muscles have been unraveled, following progression of disease pathogenesis. We used a fatigue stimulation protocol (180 trains at 120 Hz-300 ms), followed by a 30 min recovery period (see FIG. 6A) to investigate treatment impact on EDL fatigue properties. […] The strong resistance of the muscle to fatigue probably reflected the high rate of denervation of the EDL muscle at the symptomatic stage in both darifenacin-and placebo-treated mice.\nMuscle fatigue: The fatigue protocol is illustrated in FIG. 6A. The fatigue protocol was adapted to each muscle owing to the differences in their intrinsic properties. For the EDL, fatigue was tested using a bout of 180 nerve stimulations for a duration of 300 ms, elicited at a frequency of 120 Hz. The rest period between each stimulation was 700 ms, for a total protocol duration of 3 min. Muscular stimulations were super-imposed to nerve stimulations every 10 stimulations (18 simultaneous nerve-muscle stimulations), to evaluate muscular reserve. The fatigue protocol for the SOL consisted of a bout of 300 nerve stimulations for 500 ms at 50 Hz, with a rest period of 600 ms between stimulations, for a total duration of 5 min 30. Muscular stimulations were super-imposed to nerve stimulations every 10 stimulations (30 simultaneous nerve-muscle stimulations).\nEach fatigue protocol was followed by a 30 min recovery period during which muscular and neuromuscular contractile force were measured at the following latencies (after the end of the fatigue protocol): 5 s, 10 s, 15 s, 30 s, 45 sec, 1 min, 1.5 min, 2 min, 2.5 min, 5 min, 10 min, 20 min and 30 min."}, "SOD1^G37R mice [2]": {"test_system": "SOD1^G37R mice", "test": "EDL contractile force with muscle force transducer (force-frequency curve, contractile capacity ratio)", "source_text": "To investigate this, we used a musde force transducer to measure the force generated by EDL muscles elicited by stimulation of the motor nerve and/or by the direct muscle stimulation (FIG. 5A). With this system, stimulation of the motor nerve at various frequencies elicits muscle contraction through NMJ efficacy, reflecting the strength of contractile fibers associated with innervated NMJs only. Muscle stimulation, on the contrary, depolarizes all muscle fibers and reflect maximal twitch force of all the muscle, independent of the innervation status.\nThese values represent respectively 55% and 30% of the WT mean twitch force value (FIG. 5B; Dari N=8, Placebo N=8; p<0.01, Repeated Two-way ANOVA). Contractile forces generated differed between the two groups from 70 Hz to 300 Hz (FIG. 5B; Dari N=8, Placebo N=8; p<0.05, Two-way ANOVA, Bonferroni post hoc test). […] This is indicative of the preservation of the fast-twitch properties of the EDL (FIG. 5C; Dari N=8, Placebo N=8; p<0.05 et p<0.01, unpaired t-tests at each frequency).\nWe next determined the proportion of the muscle capacity that is used by the neuromuscular system upon nerve stimulation. This was expressed as the contractile capacity ratio calculated as follow: […]\nThe EDL and SOL nerve-muscle preparations were attached vertically to a fixed force transducer (model 402 A-500 mN, Aurora Scientific Inc.) using surgical threads. The preparations were attached at the tendons level to the transducer at one extremity and to an adaptable hook at the opposite extremity. A platinum reference electrode was then juxtaposed ot the muscle, positioned near an extremity of the muscle, close to a tendon. To stimulate the muscle, a second platinum electrode was juxtaposed at the other extremity of the muscle. To elicit muscle contractions from motor nerve and neuromuscular activity, the tibial nerve (SOL) or the deep peroneal nerve (EDL) motor nerve was suctioned into an electrode made of PE tubing and filled with Ringer's solution. […] Neuromuscular contractile basal force responses were elicited by a single supra-maximal square-wave of 500 mV, 0.1 ms pulse imposed on the motor nerve. Muscle contractile basal force responses were elicited by square pulse stimulation of 15 V, 1 ms. Optimal muscle length was determined by gradually stretching the muscle until maximal contractile force output was attained.\nForce-frequency curve: Nerve and muscle stimulations were performed to generate a standard force-frequency curve. Alternate nerve and muscle stimulations were performed at various frequencies (5 Hz, 10 Hz, 20 Hz, 30 Hz, 40 Hz, 50 Hz, 60 Hz, 70 Hz, 80 Hz, 90 Hz, 100 Hz, 120 Hz, 140 Hz, 160 Hz, 180 Hz, 200 Hz, 250 Hz and 300 Hz) and the force generated monitored. There was a 2-minute rest period between each stimulation."}, "SOD1^G37R mice [3]": {"test_system": "SOD1^G37R mice", "test": "Body weight loss", "conditions": "at P520; treatment from disease onset; N=21", "source_text": "To this end, we monitored the changes in the body weight of the animals, a metric that is directly related to the progression of the disease and survival whereby animals present an important gradual body weight loss after symptoms onset.\nThe pre-clinial trial design was made according to guidelines for preclinical animal research in ALS/MND [35]. Male mice from the SOD1^G37R background and their WT littermates were included in the preclinical study. Mice were randomly assigned to the experimental or the placebo group. Treatment, behavior monitoring, experiments and results analysis were done blindly. Standard ALS behavioral measurements were performed biweekly to measure disease progression in the various study groups. This includes rotarod test. grip strength measurements, weight measurements and tail suspension test to assess hindlimb extension reflex."}, "[4]": {"conditions": "pre-onset treatment P400 until P520"}}}
{"smiles": "NC(=O)C(c1ccccc1)(c1ccccc1)[C@@H]1CCN(CCc2ccc3c(c2)CCO3)C1", "note": "[darifenacin]", "values": [{"measurement": "rate of fatigue generated by muscle stimulation vs placebo", "setting": "SOD1^G37R mice [1]; [4]", "result": "no difference"}, {"measurement": "rate of recovery following the fatigue protocol vs placebo", "setting": "SOD1^G37R mice [1]; [4]", "result": "comparable"}, {"measurement": "rate of fatigue of contractions generated by motor nerve stimulation vs placebo", "setting": "SOD1^G37R mice [1]; treatment from disease onset", "result": "no difference"}, {"measurement": "rate of recovery following the fatigue protocol vs placebo", "setting": "SOD1^G37R mice [1]; treatment from disease onset", "result": "no difference"}, {"measurement": "EDL fatigue on direct muscle stimulation", "setting": "SOD1^G37R mice [1]; treatment from disease onset, p<0.01 vs placebo", "result": "more typical for this type of fast twitch muscle"}, {"measurement": "peak EDL muscle force, nerve or muscle stimulation, vs placebo", "setting": "SOD1^G37R mice [2]; 5 Hz-300 Hz, pre-onset treatment P400 until P520, N=4", "result": "no difference"}, {"measurement": "EDL twitch force, nerve stimulation", "setting": "SOD1^G37R mice [2]; force-frequency protocol 5 Hz-300 Hz, treatment from disease onset, N=8", "result": "138.0±9.1", "unit": "mN"}, {"measurement": "EDL twitch force as % of the WT mean twitch force value", "setting": "SOD1^G37R mice [2]; nerve stimulation, treatment from disease onset", "result": 55, "unit": "%"}, {"measurement": "animals discarded for early onset of forelimb paralysis, final stage at P490", "setting": "SOD1^G37R mice [2]; pre-onset treatment from P400", "result": "two"}, {"measurement": "body weight loss", "setting": "SOD1^G37R mice [3]", "result": "20.0±1.9", "unit": "%"}]}
